Here are results for 17 compounds from US20250215029A1 (Recludix Pharma, Inc., priority 2022, published 2025).

Assay [1] addresses T1, Recombinant STAT6 protein (STAT6 (W123-T658)) (Homo sapiens, UniProt P42226).
T1 construct: Recombinant STAT6 protein (STAT6 (W123-T658))
T1 sequence (P42226 123-658): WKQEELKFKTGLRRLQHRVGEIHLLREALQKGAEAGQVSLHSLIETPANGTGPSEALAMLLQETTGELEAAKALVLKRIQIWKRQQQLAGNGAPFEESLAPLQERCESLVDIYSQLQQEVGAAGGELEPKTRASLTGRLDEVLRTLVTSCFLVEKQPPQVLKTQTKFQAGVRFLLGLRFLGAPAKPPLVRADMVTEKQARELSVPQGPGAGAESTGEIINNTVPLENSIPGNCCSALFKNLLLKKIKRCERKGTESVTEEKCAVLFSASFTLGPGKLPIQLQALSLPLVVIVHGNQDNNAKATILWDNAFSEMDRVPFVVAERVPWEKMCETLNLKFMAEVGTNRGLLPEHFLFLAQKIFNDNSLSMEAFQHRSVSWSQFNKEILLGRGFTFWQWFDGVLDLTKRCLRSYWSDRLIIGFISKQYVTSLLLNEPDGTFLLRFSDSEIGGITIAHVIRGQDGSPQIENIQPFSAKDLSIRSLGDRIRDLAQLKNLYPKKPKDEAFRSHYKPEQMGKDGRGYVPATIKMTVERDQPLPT
As to the kind of experiment: STAT6 Fluorescence Polarization (FP) Assay. Type of assay: binding. As to conditions: STAT6 (W123-T658) 250 nM, probe 5-FAM-Ap[…]-NH2 2 nM, 45-minute incubation; read-out: STAT6 (FP assay IC50 class). In short, it runs like this: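 Displacement of a fluorescent phosphotyrosine peptide (2 nM) from 250 nM STAT6 (W123-T658) is measured by polarization after a 45-minute room-temperature incubation. Compounds are titrated serially at 1% DMSO, and IC50 values derive from regression of mP on log concentration.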

The target of assay [2] is T2, Recombinant STAT3 protein (STAT3 (G127-I722)) (Homo sapiens, UniProt P40763).
T2 construct: Recombinant STAT3 protein (STAT3 (G127-I722))
T2 sequence (P40763 127-722): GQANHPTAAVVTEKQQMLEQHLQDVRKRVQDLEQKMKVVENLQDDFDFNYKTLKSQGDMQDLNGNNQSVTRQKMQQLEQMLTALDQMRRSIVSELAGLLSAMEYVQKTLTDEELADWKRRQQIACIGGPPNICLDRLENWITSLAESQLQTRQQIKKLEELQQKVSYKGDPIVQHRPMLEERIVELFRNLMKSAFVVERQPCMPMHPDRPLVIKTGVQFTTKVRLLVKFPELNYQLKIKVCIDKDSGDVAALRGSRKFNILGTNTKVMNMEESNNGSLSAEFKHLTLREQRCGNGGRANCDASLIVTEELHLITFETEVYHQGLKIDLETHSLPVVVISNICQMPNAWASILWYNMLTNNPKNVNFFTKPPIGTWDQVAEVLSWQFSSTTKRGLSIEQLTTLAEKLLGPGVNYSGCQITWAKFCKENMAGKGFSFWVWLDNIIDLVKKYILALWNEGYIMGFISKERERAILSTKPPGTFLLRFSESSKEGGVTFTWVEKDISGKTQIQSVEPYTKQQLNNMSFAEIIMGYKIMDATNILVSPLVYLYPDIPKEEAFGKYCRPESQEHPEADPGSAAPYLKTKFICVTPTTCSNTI
As to the kind of experiment: STAT3 Fluorescence Polarization (FP) Assay. Type of assay: binding. As to conditions: STAT3 (G127-I722) 25 nM, probe 5-FAM-GpYLPQTV-NH2 2 nM, 45-minute incubation; read-out: STAT3 (FP assay IC50 class). The essentials: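 Displacement of a 2 nM 5-FAM-labelled pY peptide (GpYLPQTV) from 25 nM recombinant STAT3 (G127-I722) was monitored by fluorescence polarization. Incubation lasted 45 min at room temperature in pH 7.4 HEPES buffer containing 1% DMSO.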

pIC50: −log10 of the molar value.

On to `COc1ccncc1C1CN(C(=O)[C@@H]2CC[C@@H]3CCC[C@H](NC(=O)c4cc5cc(CP(=O)(O)O)ccc5s4)C(=O)N32)C1` [Compound 502, ((2-(((3S,6S,9aS)-3-(3-(4-methoxypyridin-3-yl)azetidine-1-carbonyl)-5-oxooctahydro-1H-pyrrolo[1,2-a]azepin-6-yl)carbamoyl)benzo[b]thiophen-5-yl)methyl)phosphonic acid], for which the pIC50 was 4.52 to 5.52 in assay [1] and 6.00 to 7.00 in assay [2].
For `CCc1ccncc1C1CN(C(=O)[C@@H]2CC[C@@H]3CCC[C@H](NC(=O)c4cc5cc(CP(=O)(O)O)ccc5s4)C(=O)N32)C1` [Compound 503, ((2-(((3S,6S,9aS)-3-(3-(4-ethylpyridin-3-yl)azetidine-1-carbonyl)-5-oxooctahydro-1H-pyrrolo[1,2-a]azepin-6-yl)carbamoyl)benzo[b]thiophen-5-yl)methyl)phosphonic acid], in that order: 4.52 to 5.52 and 6.00 to 7.00.
In the case of `Cc1c(F)cncc1C1CN(C(=O)[C@@H]2CC[C@@H]3CCC[C@H](NC(=O)c4cc5cc(CP(=O)(O)O)ccc5s4)C(=O)N32)C1` [Compound 504, ((2-(((3S,6S,9aS)-3-(3-(5-fluoro-4-methylpyridin-3-yl)azetidine-1-carbonyl)-5-oxooctahydro-1H-pyrrolo[1,2-a]azepin-6-yl)carbamoyl)benzo[b]thiophen-5-yl)methyl)phosphonic acid], the figures for the pIC50 in assay [1] and in assay [2] were 4.52 to 5.52 and 5.00 to 6.00, respectively.
For `Cc1ccnc(F)c1C1CN(C(=O)[C@@H]2CC[C@@H]3CCC[C@H](NC(=O)c4cc5cc(CP(=O)(O)O)ccc5s4)C(=O)N32)C1` [Compound 505, ((2-(((3S,6S,9aS)-3-(3-(2-fluoro-4-methylpyridin-3-yl)azetidine-1-carbonyl)-5-oxooctahydro-1H-pyrrolo[1,2-a]azepin-6-yl)carbamoyl)benzo[b]thiophen-5-yl)methyl)phosphonic acid], in that order: 4.52 to 5.52 and 5.00 to 6.00.
For `COc1cncc(C2CN(C(=O)[C@@H]3CC[C@@H]4CCC[C@H](NC(=O)c5cc6cc(CP(=O)(O)O)ccc6s5)C(=O)N43)C2)c1C` [Compound 506, ((2-(((3S,6S,9aS)-3-(3-(5-methoxy-4-methylpyridin-3-yl)azetidine-1-carbonyl)-5-oxooctahydro-1H-pyrrolo[1,2-a]azepin-6-yl)carbamoyl)benzo[b]thiophen-5-yl)methyl)phosphonic acid], in that order: 4.52 to 5.52 and 5.00 to 6.00.
Take `Cc1cc(N(C)C)ncc1C1CN(C(=O)[C@@H]2CC[C@@H]3CCC[C@H](NC(=O)c4cc5cc(CP(=O)(O)O)ccc5s4)C(=O)N32)C1` [Compound 507, ((2-(((3S,6S,9aS)-3-(3-(6-(dimethylamino)-4-methylpyridin-3-yl)azetidine-1-carbonyl)-5-oxooctahydro-1H-pyrrolo[1,2-a]azepin-6-yl)carbamoyl)benzo[b]thiophen-5-yl)methyl)phosphonic acid]: the values for the negative logarithm of the IC50 (pIC50) in assay [1] and in assay [2] were 4.52 to 5.52 and 5.00 to 6.00, respectively.
For `O=C(N[C@H]1CCC[C@H]2CC[C@@H](C(=O)N3CCC(c4cccnc4)C3)N2C1=O)c1cc2cc(CP(=O)(O)O)ccc2s1` (stereo partly drawn) [Compound 508, ((2-(((3S,6S,9aS)-5-oxo-3-(3-(pyridin-3-yl)pyrrolidine-1-carbonyl)octahydro-1H-pyrrolo[1,2-a]azepin-6-yl)carbamoyl)benzo[b]thiophen-5-yl)methyl)phosphonic acid], in that order: 4.52 to 5.52 and 5.00 to 6.00.
For `O=C(N[C@H]1CCCC[C@H]2CC[C@@H](C(=O)N3CCC(c4cccnc4)C3)N2C1=O)c1cc2cc(CP(=O)(O)O)ccc2s1` (stereo partly drawn) [Compound 509, ((2-(((3S,6S,10aS)-5-oxo-3-(3-(pyridin-3-yl)pyrrolidine-1-carbonyl)decahydropyrrolo[1,2-a]azocin-6-yl)carbamoyl)benzo[b]thiophen-5-yl)methyl)phosphonic acid], in that order: 4.52 to 5.52 and 5.00 to 6.00.
For `Cc1c(C#N)cncc1C1CN(C(=O)[C@@H]2CC[C@@H]3CCC[C@H](NC(=O)c4cc5cc(CP(=O)(O)O)ccc5s4)C(=O)N32)C1` [Compound 510, ((2-(((3S,6S,9aS)-3-(3-(5-cyano-4-methylpyridin-3-yl)azetidine-1-carbonyl)-5-oxooctahydro-1H-pyrrolo[1,2-a]azepin-6-yl)carbamoyl)benzo[b]thiophen-5-yl)methyl)phosphonic acid], in that order: 4.52 to 5.52 and 5.00 to 6.00.
As to `COc1cc(C)c(C2CN(C(=O)[C@@H]3CC[C@@H]4CCC[C@H](NC(=O)c5cc6cc(CP(=O)(O)O)ccc6s5)C(=O)N43)C2)cn1` [Compound 511, ((2-(((3S,6S,9aS)-3-(3-(6-methoxy-4-methylpyridin-3-yl)azetidine-1-carbonyl)-5-oxooctahydro-1H-pyrrolo[1,2-a]azepin-6-yl)carbamoyl)benzo[b]thiophen-5-yl)methyl)phosphonic acid], the pIC50 in assay [1] was 4.52 to 5.52; in assay [2], 5.00 to 6.00.
For `CN(C)c1ccncc1C1CN(C(=O)[C@@H]2CC[C@@H]3CCC[C@H](NC(=O)c4cc5cc(CP(=O)(O)O)ccc5s4)C(=O)N32)C1` [Compound 512, ((2-(((3S,6S,9aS)-3-(3-(4-(dimethylamino)pyridin-3-yl)azetidine-1-carbonyl)-5-oxooctahydro-1H-pyrrolo[1,2-a]azepin-6-yl)carbamoyl)benzo[b]thiophen-5-yl)methyl)phosphonic acid], in that order: 4.52 to 5.52 and above 7.00.
With `O=C(N[C@H]1CCCC[C@H]2CC[C@@H](C(=O)N3CCC(O)(c4cc[nH]c(=O)c4)C3)N2C1=O)c1cc2cc(C(F)(F)P(=O)(O)O)ccc2s1` (stereo partly drawn) [Compound 513, (difluoro(2-(((3S,6S,10aS)-3-(3-hydroxy-3-(2-oxo-1,2-dihydropyridin-4-yl)pyrrolidine-1-carbonyl)-5-oxodecahydropyrrolo[1,2-a]azocin-6-yl)carbamoyl)benzo[b]thiophen-5-yl)methyl)phosphonic acid], the negative-log IC50 (pIC50) in assay [1] was 5.52 to 6.52; in assay [2], 6.00 to 7.00.
For the compound `O=C(N[C@H]1CCC[C@H]2CC[C@@H](C(=O)N3CC(c4cnccc4F)C3)N2C1=O)c1cc2cc(CP(=O)(O)O)ccc2s1` [Compound 514, ((2-(((3S,6S,9aS)-3-(3-(4-fluoropyridin-3-yl)azetidine-1-carbonyl)-5-oxooctahydro-1H-pyrrolo[1,2-a]azepin-6-yl)carbamoyl)benzo[b]thiophen-5-yl)methyl)phosphonic acid], the values for the pIC50 in assay [1] and in assay [2] were 4.52 to 5.52 and above 7.00, respectively.
For `N#Cc1nccc(C2CN(C(=O)[C@@H]3CC[C@@H]4CCC[C@H](NC(=O)c5cc6cc(CP(=O)(O)O)ccc6s5)C(=O)N43)C2)n1` [Compound 515, ((2-(((3S,6S,9aS)-3-(3-(2-cyanopyrimidin-4-yl)azetidine-1-carbonyl)-5-oxooctahydro-1H-pyrrolo[1,2-a]azepin-6-yl)carbamoyl)benzo[b]thiophen-5-yl)methyl)phosphonic acid], in that order: 4.52 to 5.52 and 5.00 to 6.00.
For `O=C(N[C@H]1CCCC[C@H]2CC[C@@H](C(=O)N3CC(c4cnccc4-c4ccccc4)C3)N2C1=O)c1cc2cc(C(F)(F)P(=O)(O)O)ccc2s1` [Compound 516, (difluoro(2-(((3S,6S,10aS)-5-oxo-3-(3-(4-phenylpyridin-3-yl)azetidine-1-carbonyl)decahydropyrrolo[1,2-a]azocin-6-yl)carbamoyl)benzo[b]thiophen-5-yl)methyl)phosphonic acid], in that order: 5.52 to 6.52 and above 7.00.
For `O=C(N[C@H]1CCC[C@H]2CC[C@@H](C(=O)N3CC(c4cnccc4C4CC4)C3)N2C1=O)c1cc2cc(CP(=O)(O)O)ccc2s1` [Compound 517, ((2-(((3S,6S,9aS)-3-(3-(4-cyclopropylpyridin-3-yl)azetidine-1-carbonyl)-5-oxooctahydro-1H-pyrrolo[1,2-a]azepin-6-yl)carbamoyl)benzo[b]thiophen-5-yl)methyl)phosphonic acid], in that order: 4.52 to 5.52 and 6.00 to 7.00.
Regarding `O=C(N[C@H]1CCCC[C@H]2CC[C@@H](C(=O)N3CC(c4cncc(-c5ccccc5)c4)C3)N2C1=O)c1cc2cc(C(F)(F)P(=O)(O)O)ccc2s1` [Compound 518, (difluoro(2-(((3S,6S,10aS)-5-oxo-3-(3-(5-phenylpyridin-3-yl)azetidine-1-carbonyl)decahydropyrrolo[1,2-a]azocin-6-yl)carbamoyl)benzo[b]thiophen-5-yl)methyl)phosphonic acid], the results for the negative logarithm of the IC50 (pIC50) in assay [1] and in assay [2] were 4.52 to 5.52 and 6.00 to 7.00, respectively.
